Laboratory results reported in ChEMBL document CHEMBL3137667, “[Drug-induced liver injury; fourteenth updated edition of the bibliographic database of liver injuries and related drugs]” (Gastroenterol Clin Biol, 2004).

Key:
[1] = human
[2] = Proposed mechanism(s) of liver damage. [column 'MEC' in source]; conditions: human
[3] = human; remark: listed apart in the source
[4] = human, serum
[5] = Highest frequency of moderate liver toxicity observed during clinical trials, expressed as a percentage. [column '% BIOL' in source]; conditions: human
[6] = Times to onset, minimal and maximal, observed in the indexed observations. [column 'DELAI' in source]; conditions: human
[7] = human; remark: listed apart in the source
[8] = human; remark: listed apart in the source
[9] = human; remark: listed apart in the source
[10] = human; remark: listed apart in the source
[11] = human; remark: listed apart in the source
[12] = Highest frequency of acute liver toxicity observed during clinical trials, expressed as a percentage. [column '% AIGUE' in source]; conditions: human
[13] = human; remark: listed apart in the source
[14] = human, serum; remark: listed apart in the source
[15] = human, serum, 4383 h
[16] = human; remark: listed apart in the source
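Wherever Hepatotoxicity (association with vascular disease) is given: count of indexed literature references reporting vascular liver injury in humans, e.g. peliosis hepatitis, hepatic veno-occlusive disease or Budd-Chiari syndrome.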
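Wherever Hepatotoxicity (benign tumour) is given: value is a count of indexed literature references citing a benign tumour confirmed by histopathology.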
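Wherever Hepatotoxicity (choleostasis) is given: human cholestatic liver injury, shown by histopathology or by peak ALT or AST elevation over alkaline phosphatase ratio below 2, value counts indexed literature reports.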
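Wherever Hepatotoxicity (chronic liver disease) is given: chronic liver injury confirmed by histopathology or persistently raised serum aminotransferase activity beyond 6 months, value given as the count of indexed literature references.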
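Wherever Hepatotoxicity (cirrhosis) is given: value is a count of indexed literature references reporting cirrhosis confirmed by histopathology.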
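Wherever Hepatotoxicity (cytolytic) is given: human cytolytic liver injury, shown by histopathology or by a ratio above 5 of peak ALT or AST elevation to alkaline phosphatase elevation, value counts indexed references.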
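Wherever Hepatotoxicity (granulomatous hepatitis) is given: value is a count of indexed literature references reporting granulomatous liver disease confirmed by histopathology.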
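Wherever Hepatotoxicity (malignant tumour) is given: malignant tumour confirmed by histopathology, value gives the count of indexed literature references reporting it.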
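Wherever Hepatotoxicity (severe hepatitis) is given: human clinical data: severe hepatitis, meaning potentially life-threatening liver failure or clinically observed cases, the value counts how many indexed literature references report it.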
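Wherever Hepatotoxicity (steatosis) is given: steatosis confirmed by histopathology, value is the count of indexed references.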

O=C1c2c(O)ccc(O)c2C(=O)c2c(NCCNCCO)ccc(NCCNCCO)c21 [MITOXANTRONE]
Hepatotoxicity (malignant tumour) [1]: 0 | Hepatotoxicity (mechanism) [2]: Dose-dependant | Hepatotoxicity (cytolytic) [3]: 0 | Hepatotoxicity (acute) [4]: 4 | Hepatotoxicity (moderate) [5]: 80% | Hepatotoxicity (time to onset) [6]: 4 days - 24 days | Hepatotoxicity (granulomatous hepatitis) [7]: 0 | Hepatotoxicity (cirrhosis) [8]: 0 | Hepatotoxicity (severe hepatitis) [9]: 2 | Hepatotoxicity (association with vascular disease) [10]: 0 | Hepatotoxicity (benign tumour) [11]: 0 | Hepatotoxicity (acute) [12]: 42.8% | Hepatotoxicity (choleostasis) [13]: 0 | Hepatotoxicity (moderate) [14]: 21 | Hepatotoxicity (chronic liver disease) [15]: 0 | Hepatotoxicity (steatosis) [16]: 0

O=C1CC[C@@]2(O)[C@H]3Cc4ccc(O)c5c4[C@@]2(CCN3CC2CC2)[C@H]1O5 [NALTREXONE]
Hepatotoxicity (malignant tumour) [1]: 0 | Hepatotoxicity (mechanism) [2]: Dose-dependant | Hepatotoxicity (cytolytic) [3]: 3 | Hepatotoxicity (acute) [4]: 3 | Hepatotoxicity (moderate) ([5]; Liver): 20% | Hepatotoxicity (time to onset) [6]: 1 month - 2 months | Hepatotoxicity (granulomatous hepatitis) [7]: 0 | Hepatotoxicity (cirrhosis) [8]: 0 | Hepatotoxicity (severe hepatitis) ([9]; Liver): 0 | Hepatotoxicity (association with vascular disease) [10]: 0 | Hepatotoxicity (benign tumour) [11]: 0 | Hepatotoxicity (acute) ([12]; Liver): 0% | Hepatotoxicity (choleostasis) [13]: 0 | Hepatotoxicity (moderate) [14]: 9 | Hepatotoxicity (chronic liver disease) [15]: 0 | Hepatotoxicity (steatosis) [16]: 0

Cc1ccnc2c1NC(=O)c1cccnc1N2C1CC1 [NEVIRAPINE]
Hepatotoxicity (malignant tumour) [1]: 0 | Hepatotoxicity (mechanism) [2]: Allergic | Hepatotoxicity (cytolytic) [3]: 29 | Hepatotoxicity (acute) [4]: 49 | Hepatotoxicity (moderate) [5]: 47.1% | Hepatotoxicity (time to onset) [6]: 8 days - 3 years | Hepatotoxicity (granulomatous hepatitis) [7]: 0 | Hepatotoxicity (cirrhosis) [8]: 0 | Hepatotoxicity (severe hepatitis) [9]: 14 | Hepatotoxicity (association with vascular disease) [10]: 0 | Hepatotoxicity (benign tumour) [11]: 0 | Hepatotoxicity (acute) [12]: 37.5% | Hepatotoxicity (choleostasis) [13]: 2 | Hepatotoxicity (moderate) [14]: 18 | Hepatotoxicity (chronic liver disease) [15]: 0 | Hepatotoxicity (steatosis) [16]: 0

CC1(C)NC(=O)N(c2ccc([N+](=O)[O-])c(C(F)(F)F)c2)C1=O [NILUTAMIDE]
Hepatotoxicity (malignant tumour) [1]: 0 | Hepatotoxicity (mechanism) ([2]; Liver): Reactive metabolite | Hepatotoxicity (cytolytic) ([3]; Liver): 4 | Hepatotoxicity (acute) [4]: 5 | Hepatotoxicity (moderate) ([5]; Liver): 8% | Hepatotoxicity (time to onset) [6]: 1 month - 4 months | Hepatotoxicity (granulomatous hepatitis) ([7]; Liver): 0 | Hepatotoxicity (cirrhosis) [8]: 0 | Hepatotoxicity (severe hepatitis) ([9]; Liver): 4 | Hepatotoxicity (association with vascular disease) [10]: 0 | Hepatotoxicity (benign tumour) [11]: 0 | Hepatotoxicity (acute) ([12]; Liver): 0% | Hepatotoxicity (choleostasis) ([13]; Liver): 0 | Hepatotoxicity (moderate) [14]: 5 | Hepatotoxicity (chronic liver disease) [15]: 0 | Hepatotoxicity (steatosis) [16]: 0

Cc1cc2c(s1)Nc1ccccc1N=C2N1CCN(C)CC1 [OLANZAPINE]
Hepatotoxicity (malignant tumour) [1]: 0 | Hepatotoxicity (mechanism) [2]: Allergic, Dose-dependant | Hepatotoxicity (cytolytic) [3]: 2 | Hepatotoxicity (acute) [4]: 2 | Hepatotoxicity (moderate) [5]: 30% | Hepatotoxicity (time to onset) [6]: 13 days - 15 months | Hepatotoxicity (granulomatous hepatitis) [7]: 0 | Hepatotoxicity (cirrhosis) [8]: 0 | Hepatotoxicity (severe hepatitis) [9]: 0 | Hepatotoxicity (association with vascular disease) [10]: 0 | Hepatotoxicity (benign tumour) [11]: 0 | Hepatotoxicity (acute) [12]: 0% | Hepatotoxicity (choleostasis) [13]: 1 | Hepatotoxicity (moderate) [14]: 13 | Hepatotoxicity (chronic liver disease) [15]: 0 | Hepatotoxicity (steatosis) [16]: 1

O=c1[nH]c2ccccc2n1CCCN1CCN(C(c2ccccc2)c2ccccc2)CC1 [OXATOMIDE]
Hepatotoxicity (malignant tumour) [1]: 0 | Hepatotoxicity (mechanism) [2]: Allergic | Hepatotoxicity (cytolytic) [3]: 3 | Hepatotoxicity (acute) [4]: 4 | Hepatotoxicity (moderate) [5]: 8.3% | Hepatotoxicity (time to onset) [6]: 10 days - 3 months | Hepatotoxicity (granulomatous hepatitis) [7]: 0 | Hepatotoxicity (cirrhosis) [8]: 0 | Hepatotoxicity (severe hepatitis) [9]: 0 | Hepatotoxicity (association with vascular disease) [10]: 0 | Hepatotoxicity (benign tumour) [11]: 0 | Hepatotoxicity (acute) [12]: 0% | Hepatotoxicity (choleostasis) [13]: 2 | Hepatotoxicity (moderate) [14]: 2 | Hepatotoxicity (chronic liver disease) [15]: 0 | Hepatotoxicity (steatosis) [16]: 0

CN(C)[C@@H]1C(O)=C(C(N)=O)C(=O)[C@@]2(O)C(O)=C3C(=O)c4c(O)cccc4[C@@](C)(O)[C@H]3[C@H](O)[C@@H]12 [OXYTETRACYCLINE]
Hepatotoxicity (malignant tumour) [1]: 0 | Hepatotoxicity (mechanism) [2]: Dose-dependant | Hepatotoxicity (cytolytic) [3]: 0 | Hepatotoxicity (acute) [4]: 2 | Hepatotoxicity (moderate) [5]: 60% | Hepatotoxicity (time to onset) [6]: 5 days - 3 weeks | Hepatotoxicity (granulomatous hepatitis) [7]: 0 | Hepatotoxicity (cirrhosis) [8]: 0 | Hepatotoxicity (severe hepatitis) [9]: 1 | Hepatotoxicity (association with vascular disease) [10]: 0 | Hepatotoxicity (benign tumour) [11]: 0 | Hepatotoxicity (acute) [12]: 0% | Hepatotoxicity (choleostasis) [13]: 2 | Hepatotoxicity (moderate) [14]: 1 | Hepatotoxicity (chronic liver disease) [15]: 0 | Hepatotoxicity (steatosis) [16]: 4

CN1CCN(CCCN2c3ccccc3Sc3ccccc32)CC1 [PERAZINE]
Hepatotoxicity (malignant tumour) [1]: 0 | Hepatotoxicity (mechanism) [2]: Dose-dependant | Hepatotoxicity (cytolytic) [3]: 2 | Hepatotoxicity (acute) [4]: 3 | Hepatotoxicity (moderate) [5]: 43% | Hepatotoxicity (time to onset) [6]: 1.5 months - 1 year | Hepatotoxicity (granulomatous hepatitis) [7]: 0 | Hepatotoxicity (cirrhosis) [8]: 0 | Hepatotoxicity (severe hepatitis) [9]: 0 | Hepatotoxicity (association with vascular disease) [10]: 0 | Hepatotoxicity (benign tumour) [11]: 0 | Hepatotoxicity (acute) [12]: 0.3% | Hepatotoxicity (choleostasis) [13]: 1 | Hepatotoxicity (moderate) [14]: 5 | Hepatotoxicity (chronic liver disease) [15]: 0 | Hepatotoxicity (steatosis) [16]: 0

NC(=O)NC(=O)Cc1ccccc1 [PHENACEMIDE]
Hepatotoxicity (malignant tumour) [1]: 0 | Hepatotoxicity (mechanism) [2]: Allergic | Hepatotoxicity (cytolytic) [3]: 8 | Hepatotoxicity (acute) [4]: 13 | Hepatotoxicity (moderate) [5]: 0% | Hepatotoxicity (time to onset) [6]: 1 month - 3 months | Hepatotoxicity (granulomatous hepatitis) [7]: 0 | Hepatotoxicity (cirrhosis) [8]: 0 | Hepatotoxicity (severe hepatitis) [9]: 8 | Hepatotoxicity (association with vascular disease) [10]: 0 | Hepatotoxicity (benign tumour) [11]: 0 | Hepatotoxicity (acute) [12]: 3% | Hepatotoxicity (choleostasis) [13]: 0 | Hepatotoxicity (moderate) [14]: 1 | Hepatotoxicity (chronic liver disease) [15]: 0 | Hepatotoxicity (steatosis) [16]: 0

c1ccc(C2(N3CCCCC3)CCCCC2)cc1 [PHENCYCLIDINE]
Hepatotoxicity (malignant tumour) [1]: 0 | Hepatotoxicity (mechanism) [2]: Dose-dependant | Hepatotoxicity (cytolytic) [3]: 2 | Hepatotoxicity (acute) [4]: 2 | Hepatotoxicity (moderate) [5]: 49.9% | Hepatotoxicity (time to onset) [6]: 6 hours - 3 days | Hepatotoxicity (granulomatous hepatitis) [7]: 0 | Hepatotoxicity (cirrhosis) [8]: 0 | Hepatotoxicity (severe hepatitis) [9]: 2 | Hepatotoxicity (association with vascular disease) [10]: 0 | Hepatotoxicity (benign tumour) [11]: 0 | Hepatotoxicity (acute) [12]: 0% | Hepatotoxicity (choleostasis) [13]: 0 | Hepatotoxicity (moderate) [14]: 1 | Hepatotoxicity (chronic liver disease) [15]: 0 | Hepatotoxicity (steatosis) [16]: 0

CNNCc1ccc(C(=O)NC(C)C)cc1 [PROCARBAZINE]
Hepatotoxicity (malignant tumour) [1]: 1 | Hepatotoxicity (mechanism) [2]: Allergic | Hepatotoxicity (cytolytic) [3]: 2 | Hepatotoxicity (acute) [4]: 2 | Hepatotoxicity (moderate) [5]: 0% | Hepatotoxicity (time to onset) [6]: 2 weeks - 3 weeks | Hepatotoxicity (granulomatous hepatitis) [7]: 1 | Hepatotoxicity (cirrhosis) [8]: 0 | Hepatotoxicity (severe hepatitis) [9]: 0 | Hepatotoxicity (association with vascular disease) [10]: 0 | Hepatotoxicity (benign tumour) [11]: 0 | Hepatotoxicity (acute) [12]: 1% | Hepatotoxicity (choleostasis) [13]: 0 | Hepatotoxicity (moderate) [14]: 0 | Hepatotoxicity (chronic liver disease) [15]: 0 | Hepatotoxicity (steatosis) [16]: 0

NC(=O)c1ncn([C@@H]2O[C@H](CO)[C@@H](O)[C@H]2O)n1 [RIBAVIRIN]
Hepatotoxicity (malignant tumour) [1]: 0 | Hepatotoxicity (mechanism) [2]: Mitochondrial toxicity | Hepatotoxicity (cytolytic) [3]: 1 | Hepatotoxicity (acute) [4]: 2 | Hepatotoxicity (moderate) [5]: 33% | Hepatotoxicity (time to onset) [6]: 11 weeks - 6 months | Hepatotoxicity (granulomatous hepatitis) [7]: 0 | Hepatotoxicity (cirrhosis) [8]: 0 | Hepatotoxicity (severe hepatitis) [9]: 1 | Hepatotoxicity (association with vascular disease) [10]: 0 | Hepatotoxicity (benign tumour) [11]: 0 | Hepatotoxicity (acute) [12]: 0% | Hepatotoxicity (choleostasis) [13]: 1 | Hepatotoxicity (moderate) [14]: 3 | Hepatotoxicity (chronic liver disease) [15]: 0 | Hepatotoxicity (steatosis) [16]: 1

CO[C@H]1/C=C/O[C@@]2(C)Oc3c(C)c(O)c4c(c3C2=O)C2=NC3(CCN(CC(C)C)CC3)NC2=C(NC(=O)/C(C)=C\C=C\[C@H](C)[C@H](O)[C@@H](C)[C@@H](O)[C@@H](C)[C@H](OC(C)=O)[C@@H]1C)C4=O [RIFABUTIN]
Hepatotoxicity (malignant tumour) [1]: 0 | Hepatotoxicity (mechanism) ([2]; Liver): Dose-dependant | Hepatotoxicity (cytolytic) ([3]; Liver): 1 | Hepatotoxicity (acute) [4]: 2 | Hepatotoxicity (moderate) ([5]; Liver): 7.1% | Hepatotoxicity (time to onset) [6]: 2 weeks - 11 weeks | Hepatotoxicity (granulomatous hepatitis) ([7]; Liver): 0 | Hepatotoxicity (cirrhosis) [8]: 0 | Hepatotoxicity (severe hepatitis) ([9]; Liver): 1 | Hepatotoxicity (association with vascular disease) [10]: 0 | Hepatotoxicity (benign tumour) [11]: 0 | Hepatotoxicity (acute) ([12]; Liver): 0% | Hepatotoxicity (choleostasis) ([13]; Liver): 0 | Hepatotoxicity (moderate) [14]: 6 | Hepatotoxicity (chronic liver disease) [15]: 0 | Hepatotoxicity (steatosis) [16]: 0
